# Measured values as given in patent US20220370384A1, “COMBINATIONS OF MEK INHIBITORS WITH CAP-DEPENDENT ENDONUCLEASE INHIBITORS” (priority 2019, published 2022).
# Experiments:
# Type in all cases: cell-based, influenza virus
# [1] = system: rgA/Giessen/6/09 (H1N1)-PA-I38T
# [2] = system: rgA/Victoria/3/75 (H3N2-PA-I38T)
# [3] = system: A/Mississippi/3/2001 (H1N1) mutant strain with the H275Y mutation in the NA gene
smiles,measurement,setting,value
"O=C(O)c1ccc(F)c(F)c1Nc1ccc(I)cc1Cl [ATR002, 2-(2-chloro-4-iodophenylamino)-N-3,4-difluoro benzoic acid]",antiviral effect in mutant strain compared with wild type,[1],steady effect as found in the wild type
same,antiviral activity,[2],revealed its potency against both variants
COC(=O)OCOc1c2n(ccc1=O)N([C@@H]1c3ccccc3SCc3c1ccc(F)c3F)[C@@H]1COCCN1C2=O [BLXM],activity lower when investigated using the mutant strain,[1],37%
same,activity lost in the mutant variant,[2],about 41%
O=C(NOCC1CC1)c1ccc(F)c(F)c1Nc1ccc(I)cc1Cl [CI-1040],antiviral effectiveness,[3],comparable antiviral effect
CCOC(=O)C1=C[C@@H](OC(CC)CC)[C@H](NC(C)=O)[C@@H](N)C1 [oseltamivir],antiviral effectiveness,[3],significant reduction in oseltamivir effectiveness
